Reference: publication PMC12040169 (PLOS Biology, 2025)

assay: in vitro; details: human, hela cells, % viability

Row | SMILES | viability at 28.5 h, 10 µM [%]
1 | COc1cc(/C=C(/C#N)c2ccc(C(=O)O)cc2)cc(Br)c1OCC(=O)O [CBK268956] | 92.3
2 | O=C(O)/C(O)=C/C(=O)c1ccc(Cl)cc1 [CBK261841] | 111
3 | Nc1ncc(-c2ccc(C(=O)N3CCOCC3)cc2)nc1-c1cccnc1 [CBK126356] | 106
4 | OC(COc1ccc(F)cc1)CN1CCN(c2nc(-c3ccccc3)ns2)CC1 (centres unmarked) [CBK074698] | 91.8
5 | COc1cc(CNC(=O)N(CCc2ccccc2)Cc2ccccc2)cc(OC)c1OC [CBK155329] | 110
6 | CC(C)NC(=O)[C@H]1O[C@H](CCN2CCN(c3ccccc3)CC2)CC[C@@H]1O [CBK288719] | 123
7 | Cc1ccc(C)c(NC(=O)CCc2c(C)nn3cnnc3c2C)c1 [CBK304358] | 90
8 | CC(=O)Nc1ccc(S(=O)(=O)Nc2nc3ccccc3nc2Nc2ccc(C(=O)O)cc2)cc1 [CBK296079] | 125
9 | CCCC(=O)c1ccc(S(=O)(=O)N2CCN(Cc3c[nH]nc3-c3cccs3)CC2)cc1 [CBK063160] | 79.6
10 | CCC(=O)N1CCC[C@@H]1Cn1nc(-c2cccs2)ccc1=O [CBK282304] | 84.8
11 | Cc1nonc1NC(=O)CSc1nc2ccccc2[nH]1 [CBK269273] | 101
12 | CCOC(=O)c1cnc(O/N=C(\N)c2ccc(C(C)(C)C)cc2)nc1C(F)(F)F [CBK022142] | 103
13 | Cc1cc(C)c(OCC(=O)Nc2cccc(-c3nc4cc(C(C)C)ccc4o3)c2)c([N+](=O)[O-])c1 [CBK264680] | 88.6
14 | CC(=O)N[C@H]1[C@H](Oc2ccc3ccccc3c2)O[C@@H]2COC(C)(C)O[C@H]2[C@@H]1O [CBK091644] | 87
15 | CCc1cc(NC[C@@H](O)CO)nc(-c2cc(F)c(F)c(F)c2)n1 [CBK132879] | 94.2
16 | Cc1ccc(S(=O)(=O)Nc2c(C(=O)N3CCOCC3)[nH]c3ccccc23)cc1 [CBK050066] | 88.7
17 | CC(C)C(NC(=O)C1CCC(C(C)(C)C)CC1)C(=O)O (centres unmarked) [CBK286610] | 95.5
18 | Cc1ccnc(SCc2cc(=O)c3c(=O)n(-c4ccccc4)[nH]c3[nH]2)n1 [CBK269875] | 110
19 | CC(=O)N1CCN(c2ccccc2NC(=O)c2ccc(OCc3ccccc3)cc2)CC1 [CBK269775] | 103
20 | CSc1nnc(CC2CCN(C(=O)Cn3nnnc3N)CC2)n1C [CBK306520] | 97.6
21 | CC1=C[C@@H](CO)[C@H](C(C)C)C[C@H]1CC(=O)N1CCN(CCO)CC1 [CBK289217] | 85.7

Row | SMILES | viability at 28.5 h, 10 µM [%]
22 | NS(=O)(=O)c1cc(C(=O)NCCc2ccc(F)cc2)c(Cl)cc1Cl [CBK288512] | 96.7
23 | c1ccc2c(c1)CCCN2Cc1nc2ccccc2[nH]1 [CBK138329] | 107
24 | CCn1c2ccccc2n2c(SC(C)C(=O)O)nnc12 (centres unmarked) [CBK267079] | 103
25 | C[C@H](NC1=NC(=O)C2(CCN(Cc3ccccc3)CC2)O1)c1ccccc1 [CBK122798T] | 88.6
26 | COC(=O)c1cc(-c2c[nH]c3ccccc23)[nH]n1 [CBK241010] | 92.5
27 | COc1cc(/C=C(/C#N)C(N)=O)cc(Br)c1O [CBK017409] | 88.1
28 | CN1CCN(c2nc(Nc3ccc(Cl)cc3)nc(Oc3ccccc3)n2)CC1 [CBK004778] | 107
29 | C#CCN(C)CC[C@@H]1CC[C@H](O)[C@@H](C(=O)N2CCOCC2)O1 [CBK288723] | 108
30 | O=C(CN1CCC(c2ccc(F)cc2)CC1)N1CCOCC1 [CBK283683] | 88.4
31 | Oc1cnnc(Nc2ccc(Nc3ccccc3)cc2)n1 [CBK287921] | 101
32 | CC(C)CC(NC(=O)Cc1cccc(O)c1)c1nnc2n1CCNCC2 (centres unmarked) [CBK307183] | 98.3
33 | O=C(CO)N1CC2(CCN(Cc3ccc(Cl)c(Cl)c3)CC2)c2ccccc21 [CBK131495] | 89.5
34 | Cc1noc(C)c1NC(=O)c1cncnc1 [CBK200382] | 112
35 | COc1cc(OC)c2nc(C(F)(F)F)cc(Cl)c2c1 [CBK006518] | 83.1
36 | C=CCOc1ccc(Cl)cc1CNc1cccc(C(=O)O)c1 [CBK078460] | 96.6
37 | COc1ccc(N(C(C)C(=O)N/N=C(\C)c2ccccc2O)S(C)(=O)=O)cc1 (centres unmarked) [CBK262402] | 93.4
38 | O=c1[nH]c2ccccc2n1CCCN1CCC(Oc2cncc(OCC3COc4ccccc4O3)n2)C1 (centres unmarked) [CBK084380] | 94.4
39 | CC(C)c1ccc(C(C)NC(=O)c2ccc(=O)n(CC(=O)N3CCCCC3)c2)cc1 (centres unmarked) [CBK286084] | 88.7
40 | CC(=O)Nc1ccc(S(=O)(=O)N2CCN(C(=O)c3cccnc3)CC2)cc1 [CBK264279] | 96.5
41 | O=C(NCC(c1ccco1)N1CCCC1)C1CCCCC1 (centres unmarked) [CBK304560] | 88.7
42 | CC(C)c1nsc(NCCc2nnc3n2CCCC3)n1 [CBK306425] | 92.4

Row | SMILES | viability at 28.5 h, 10 µM [%]
43 | O=c1cc(CO)oc(C(Nc2ccccn2)c2ccsc2)c1O (centres unmarked) [CBK296956] | 106
44 | CCOc1cccc(-c2ccc(Nc3cccc(NC(=O)c4ccncc4)c3)nc2)c1 [CBK037739] | 49.4
45 | O=C(CN1C(=O)c2ccccc2C1=O)Nc1cccc(C(=O)O)c1 [CBK287040] | 110
46 | COc1ccccc1CN(C)C(C)C(=O)Nc1ccc(S(N)(=O)=O)cc1 (centres unmarked) [CBK305839] | 90.1
47 | CCOC(=O)C(CNC(=O)c1cnc(C)c(Br)c1Cl)Cc1ccccc1 (centres unmarked) [CBK305247] | 99.6
48 | Cc1nc(C)c(-c2csc(Nc3ccc(S(N)(=O)=O)cc3)n2)s1 [CBK263292B] | 95.8
49 | CC(=O)NCC(=O)N1CCC2(C/C=C/CNC(=O)c3ccccc3OCCNC2=O)CC1 [CBK292006] | 97.4
50 | O=C(c1ccc2[nH]ccc2c1)N1CCCC1 [CBK149074] | 106
51 | Cc1cc(C[C@@H]2CCC[C@H]2NCc2c(C)nn(C(C)C)c2C)on1 [CBK285453] | 98.3
52 | COc1cc(/C=N\NC(=O)CN2CCN(C)CC2)cc2c1OCO2 [CBK261503] | 109
53 | CN1CCN(C(=O)Cn2c(-c3cccs3)cc3cccnc32)CC1 [CBK282558] | 97
54 | CCNC(=O)NC[C@H]1C[C@@H]2CCN1C[C@@H]2c1cc(-c2ccccc2OC)nn1C [CBK289105] | 118
55 | O=C(c1ccc(CO)o1)N1CCn2cc(C(F)(F)F)nc2C1 [CBK283914] | 94
56 | Cc1ccc(-c2ncc(OCCC(C)C)nc2N)cc1C [CBK145145] | 90.5
57 | Cc1ccc(CS(=O)(=O)NCc2ccccc2-n2ccnc2)cc1 [CBK281462] | 96.5
58 | CC(C)CN1CC(C(=O)N(C)CC2OCCc3ccccc32)CC1=O (centres unmarked) [CBK282093] | 102
59 | CCc1ccc(OC)c(S(=O)(=O)N2CCOCC2)c1 [CBK268214] | 117
60 | C/C(=N\Nc1cccc2cccnc12)C(C)(C)C [CBK021957] | 113
61 | C/C(=N\NC(=O)CCC(=O)Nc1ccc(I)cc1)c1ccc(O)cc1O [CBK261971] | 89.9
62 | O=C(c1ccccn1)N1CCCC(n2cnc3cc(F)ccc32)C1 (centres unmarked) [CBK284476] | 92.7
63 | CCNc1ccn([C@H]2C[C@@H](O)[C@@H](CO)O2)c(=O)n1 [CBK201311] | 95.2

Row | SMILES | viability at 28.5 h, 10 µM [%]
64 | CNC(=O)C1(Cc2ccccc2-c2ccccc2)CCN(C(=O)c2cccc(OC)c2)CC1 [CBK285922] | 85.3
65 | CN1CCC(N2CCN(C(=O)NC3CCc4ccccc43)CC2)CC1 (centres unmarked) [CBK156110] | 106
66 | Cc1cc(C)n(-c2nc(NC(C)(C)C)nc(N3CCOCC3)n2)n1 [CBK269810] | 85.5
67 | Cc1cc(NCc2ccccc2)nc2[nH]nc(N)c12 [CBK287931] | 87.7
68 | O=C(NC(c1ccccc1)c1cccnc1)C1CCN(C(=O)CN2C(=O)c3ccccc3C2=O)CC1 (centres unmarked) [CBK060515] | 108
69 | C[C@@H](NC(=O)CCN1C(=O)[C@@H]2Cc3ccccc3CN2C1=O)C(=O)O [CBK286709] | 93.7
70 | OC(CN1CCC(O)(c2cccc(C(F)(F)F)c2)CC1)c1ccccc1 (centres unmarked) [CBK286324] | 109
71 | Cc1nc[nH]c1CN(Cc1cccc(F)c1)CC1CCCO1 (centres unmarked) [CBK282525] | 105
72 | O=[N+]([O-])c1ccccc1CN1CCN(C/C=C/c2ccccc2)CC1 [CBK261518] | 87.1
73 | COc1ccccc1N1C(=O)c2ccc(C(=O)Nc3cc([N+](=O)[O-])ccc3O)cc2C1=O [CBK264272] | 95.3
74 | CCCn1ccnc1CNc1nc(C(C)(C)C)nc2c1cnn2C [CBK306739] | 91.3
75 | CC(C)(C)OC(=O)N1CCC(COc2ccc(-c3ccc(S(C)(=O)=O)cc3)nc2)CC1 [CBK167839] | 108
76 | CS(=O)(=O)N1CCCc2cc(-c3csc(N)n3)ccc21 [CBK305859] | 86.4
77 | O=C(Nc1ccc(S(=O)(=O)N2CCCCC2)cc1)c1nc(SCc2ccccc2)ncc1Cl [CBK268901] | 107
78 | CCOC(=O)CSc1nc2ccccc2nc1C(F)(F)F [CBK107200] | 92.8
79 | Cc1nnnn1C(Cc1cccc(F)c1)C(=O)N1CC(C)CC(C)C1 (centres unmarked) [CBK298262] | 96.3
80 | CN1C2CCC1CC(OC(=O)CCN1CCCC1)C2 (centres unmarked) [CBK261466] | 95.3
81 | COc1ccc(-c2ccc(=O)n(CC(=O)NC(C(=O)O)c3ccccc3)n2)c(F)c1 (centres unmarked) [CBK286769] | 97.3
82 | Fc1ccc2[nH]c3c(c2c1)CCN1C(c2ccccn2)N2CCC31CC2 (centres unmarked) [CBK284431] | 101
83 | COC(=O)c1c(NC(=S)Nc2cccc(S(=O)(=O)N3CCOCC3)c2)sc2c1CCC2 [CBK267054] | 93.8
84 | O=c1[nH]nc(SCCOc2c(Cl)c(Cl)c(Cl)c(Cl)c2Cl)c(=O)[nH]1 [CBK262794] | 91

same assay, conditions: human, hela cells, % viability, bulk resorufin, single well

Row | SMILES | viability at 28.5 h, 10 µM [%]
85 | COc1cc(/C=C2\C(=O)NC(=O)N(c3ccc(O)cc3)C2=O)cc(I)c1O [CBK264298] | 114
86 | CC(=O)N1CCC2(CC1)OCc1cc(-c3c(C)noc3C)ccc1O2 [CBK060896] | 94.4
